Among the data in US9181273B2, “Morpholine-spirocyclic piperidine amides as modulators of ion channels” (Vertex Pharmaceuticals Incorporated, priority 2011, dated 2015) are IC50 values, retold here.

The term pIC50 denotes the IC50 on a negative log10 scale, so that one unit is a factor of ten.

Each structure is given as a SMILES string. pIC50: −log10 of the molar value. A value given as a limit tells only on which side of the number the result lay.

human NaV subtype, like NaV 1.7, sequence (Q15858 whole entry): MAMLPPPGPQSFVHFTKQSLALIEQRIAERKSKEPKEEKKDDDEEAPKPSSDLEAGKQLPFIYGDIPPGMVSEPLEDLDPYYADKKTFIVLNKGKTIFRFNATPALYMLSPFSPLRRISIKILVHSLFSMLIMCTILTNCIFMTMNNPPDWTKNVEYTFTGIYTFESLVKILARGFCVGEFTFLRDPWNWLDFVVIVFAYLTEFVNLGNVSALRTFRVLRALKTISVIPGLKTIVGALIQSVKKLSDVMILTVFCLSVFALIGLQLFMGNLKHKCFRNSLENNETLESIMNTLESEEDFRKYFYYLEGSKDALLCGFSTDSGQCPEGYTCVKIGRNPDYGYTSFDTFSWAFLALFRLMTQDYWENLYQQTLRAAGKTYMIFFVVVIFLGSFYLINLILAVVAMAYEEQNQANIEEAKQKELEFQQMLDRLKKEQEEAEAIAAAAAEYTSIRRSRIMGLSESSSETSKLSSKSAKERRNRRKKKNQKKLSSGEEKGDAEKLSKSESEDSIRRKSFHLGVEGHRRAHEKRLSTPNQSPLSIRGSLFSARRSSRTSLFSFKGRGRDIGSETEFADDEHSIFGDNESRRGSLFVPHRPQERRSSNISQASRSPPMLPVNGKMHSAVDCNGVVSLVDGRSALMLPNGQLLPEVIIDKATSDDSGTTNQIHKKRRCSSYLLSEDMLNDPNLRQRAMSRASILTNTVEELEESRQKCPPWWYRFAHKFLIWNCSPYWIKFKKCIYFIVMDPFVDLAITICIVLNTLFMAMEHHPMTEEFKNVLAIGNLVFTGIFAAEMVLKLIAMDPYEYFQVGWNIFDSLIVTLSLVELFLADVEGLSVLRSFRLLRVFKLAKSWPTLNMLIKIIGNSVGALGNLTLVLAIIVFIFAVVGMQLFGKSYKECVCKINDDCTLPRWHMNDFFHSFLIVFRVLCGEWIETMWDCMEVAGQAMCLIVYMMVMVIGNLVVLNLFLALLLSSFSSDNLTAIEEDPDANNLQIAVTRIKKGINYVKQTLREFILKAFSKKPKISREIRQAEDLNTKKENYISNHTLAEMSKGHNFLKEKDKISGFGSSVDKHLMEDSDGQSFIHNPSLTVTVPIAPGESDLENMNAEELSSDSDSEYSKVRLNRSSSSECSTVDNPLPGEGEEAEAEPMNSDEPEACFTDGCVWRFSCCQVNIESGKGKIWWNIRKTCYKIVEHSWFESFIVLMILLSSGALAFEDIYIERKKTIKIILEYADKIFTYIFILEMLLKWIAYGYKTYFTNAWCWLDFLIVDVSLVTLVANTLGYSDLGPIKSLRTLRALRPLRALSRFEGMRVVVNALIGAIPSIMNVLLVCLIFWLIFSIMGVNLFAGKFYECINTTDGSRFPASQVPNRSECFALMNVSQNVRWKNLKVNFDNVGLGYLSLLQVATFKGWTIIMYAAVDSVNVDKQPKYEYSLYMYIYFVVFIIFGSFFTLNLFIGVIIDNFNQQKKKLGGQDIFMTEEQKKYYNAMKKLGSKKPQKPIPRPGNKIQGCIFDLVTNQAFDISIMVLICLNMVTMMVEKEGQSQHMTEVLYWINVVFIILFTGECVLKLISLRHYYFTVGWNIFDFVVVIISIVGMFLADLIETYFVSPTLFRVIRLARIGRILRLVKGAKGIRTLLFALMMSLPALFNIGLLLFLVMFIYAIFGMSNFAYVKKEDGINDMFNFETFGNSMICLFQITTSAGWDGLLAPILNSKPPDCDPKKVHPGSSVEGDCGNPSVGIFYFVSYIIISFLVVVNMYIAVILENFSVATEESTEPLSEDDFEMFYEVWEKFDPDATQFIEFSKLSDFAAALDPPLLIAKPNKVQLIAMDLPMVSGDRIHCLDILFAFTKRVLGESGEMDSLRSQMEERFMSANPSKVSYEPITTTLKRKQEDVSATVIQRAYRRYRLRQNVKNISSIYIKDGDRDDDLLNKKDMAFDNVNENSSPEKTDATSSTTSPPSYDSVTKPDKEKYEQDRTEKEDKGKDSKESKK

The assay addresses human NaV subtype, like NaV 1.7 (Homo sapiens, UniProt Q15858). Briefly: E-VIPR optical membrane potential assay with electrical stimulation. The class given is cell-based. As to conditions: active against one or more sodium channels; assay and NaV subtype not specified for Table 3; read-out: IC50 Binned Activity Data.
As to `CC(C)(O)c1ccc(C(=O)N2CCC3(CC2)CN(CC#N)CC(c2ccccc2)O3)cc1` (stereo not drawn) [Compound 275], the pIC50 is less than 5.30.

As to `COCC1CN(c2ncccn2)CC2(CCN(C(=O)c3ccc(OCCC(C)C)c(OC)c3)CC2)O1` (stereo not drawn) [Compound 276], the pIC50 is more than 5.70.

Turning to `CC#CCN1CC(CC)OC2(CCN(C(=O)c3ccc(OC(C)C)c(C)n3)CC2)C1` (stereo not drawn) [Compound 277], the pIC50 was 5.30 to 5.70.

Consider `COc1cc(C(=O)N2CCC3(CC2)CN(CC(F)(F)F)CC(c2ccccc2)O3)ccc1OC(C)C` (stereo not drawn) [Compound 278], for which the pIC50 was more than 5.70.

`O=C(c1ccc(S(=O)(=O)NC2CC2)cc1)N1CCC2(CC1)CN(CC(F)F)CC(c1ccc(F)cc1)O2` (stereo not drawn) [Compound 280]: the pIC50 is 5.30 to 5.70.

As for `Cc1cc(C(=O)N2CCC3(CC2)CN(C(C)C)CC(c2ccccc2)O3)ccc1OC(C)C` (stereo not drawn) [Compound 281], the negative-log IC50 (pIC50) is more than 5.70.

In the case of `COCC1CN(c2ncccn2)CC2(CCN(C(=O)c3ccc(OC(C)C)c(C)n3)CC2)O1` (stereo not drawn) [Compound 282], the pIC50 was more than 5.70.

For `Cc1cc(C(=O)N2CCC3(CC2)CN(CC#N)CC(c2ccccc2)O3)ccc1OC(C)C` (stereo not drawn) [Compound 283], the pIC50 is more than 5.70.

In the case of `COCC1CN(c2ncccn2)CC2(CCN(C(=O)c3ccc(OC)c(C(F)(F)F)c3)CC2)O1` (stereo not drawn) [Compound 284], the pIC50 was more than 5.70.

`COCC1CN(C2CCC2)CC2(CCN(C(=O)c3ccc(OC(C)C)c(C)c3)CC2)O1` (stereo not drawn) [Compound 285]: the pIC50 was more than 5.70.

For the compound `COCC1CN(c2ccccc2)CC2(CCN(C(=O)c3ccc(OC(C)C)c(C)c3)CC2)O1` (stereo not drawn) [Compound 286], the pIC50 was more than 5.70.

As for `COCC1CN(CC2CC2)CC2(CCN(C(=O)c3ccc(OC(C)C)c(C)c3)CC2)O1` (stereo not drawn) [Compound 287], the pIC50 was more than 5.70.

Consider `CCC1CN(c2ccccn2)CC2(CCN(C(=O)c3ccc(C4(O)CCCC4)cc3)CC2)O1` (stereo not drawn) [Compound 288], for which the pIC50 is more than 5.70.

With `Cc1cc(C(=O)N2CCC3(CC2)CN(C(=O)C(C)C)CC(c2ccccc2)O3)ccc1OC(C)C` (stereo not drawn) [Compound 289], the pIC50 is 5.30 to 5.70.

Consider `O=C(c1ccc(C(F)(F)F)cn1)N1CCC2(CC1)CN(CC(F)F)CC(c1ccccc1)O2` (stereo not drawn) [Compound 290], for which the pIC50 was less than 5.30.

On to `COCC1CN(c2cccnc2)CC2(CCN(C(=O)c3ccc(OC(C)C)c(C)c3)CC2)O1` (stereo not drawn) [Compound 291], for which the pIC50 was more than 5.70.

`COC(=O)C(C)(C)c1ccc(C(=O)N2CCC3(CC2)CN(CC(F)(F)F)CC(c2ccccc2)O3)cc1OC` (stereo not drawn) [Compound 292]: the pIC50 was 5.30 to 5.70.

Consider `CCN(CC)C(=O)c1ccc(C(=O)N2CCC3(CC2)CN(CC(F)(F)F)CC(c2ccccc2)O3)cc1F` (stereo not drawn) [Compound 293], for which the pIC50 was more than 5.70.

As to `CCC1CN(c2ccccn2)CC2(CCN(C(=O)c3ccc(OC(C)C)c(C)c3)CC2)O1` (stereo not drawn) [Compound 295], the pIC50 was more than 5.70.

On to `Cc1cc(C(=O)N2CCC3(CC2)CN(CC(F)F)CC(c2ccccn2)O3)ccc1OCCO` (stereo not drawn) [Compound 296], for which the pIC50 is less than 5.30.

Turning to `COc1cc(C(=O)N2CCC3(CC2)CN(CC(F)F)CC(c2ccccn2)O3)cc(F)c1OC(C)C` (stereo not drawn) [Compound 297], the pIC50 is more than 5.70.

Consider `Cc1cn[nH]c1C1CN(CC(F)F)CC2(CCN(C(=O)c3ccc(OC(C)C)c(F)c3)CC2)O1` (stereo not drawn) [Compound 298], for which the pIC50 was more than 5.70.

In the case of `O=C(c1cccc(F)c1OC(F)F)N1CCC2(CC1)CN(CC(F)(F)F)CC(c1ccccc1)O2` (stereo not drawn) [Compound 299], the pIC50 is less than 5.30.

With `COCC1CN(c2ncccn2)CC2(CCN(C(=O)c3ccc(C4(O)CCCC4)cc3)CC2)O1` (stereo not drawn) [Compound 300], the pIC50 was more than 5.70.

With `Cc1cc(C(=O)N2CCC3(CC2)CN(CC(F)(F)F)CC(c2ccccc2)O3)ccc1OC(C)C` (stereo not drawn) [Compound 301], the pIC50 was more than 5.70.

Regarding `COCC1CN(C2CCCC2)CC2(CCN(C(=O)c3ccc(OC(C)C)c(C)c3)CC2)O1` (stereo not drawn) [Compound 302], the pIC50 is more than 5.70.

On to `COCC1CN(c2ncccn2)CC2(CCN(C(=O)c3ccc(OC(C)C)c(C#N)c3)CC2)O1` (stereo not drawn) [Compound 303], for which the pIC50 is more than 5.70.

As for `COCC1CN(C2CCC(C(C)C)CC2)CC2(CCN(C(=O)c3ccc(OC(C)C)c(C)c3)CC2)O1` (stereo not drawn) [Compound 304], the pIC50 is more than 5.70.

As to `Cc1cc(C(=O)N2CCC3(CC2)CN(CC(F)F)CC(c2ccccn2)O3)ccc1OCCCO` (stereo not drawn) [Compound 305], the pIC50 was 5.30 to 5.70.

Take `Cc1cc(C(=O)N2CCC3(CC2)CN(CC(F)F)CC(c2ccn(C)n2)O3)ccc1OC(C)C` (stereo not drawn) [Compound 306]: the negative logarithm of the IC50 (pIC50) is more than 5.70.

As for `CC(C)(O)c1ccc(C(=O)N2CCC3(CC2)CN(CC(F)F)CC(c2ccc(F)cc2)O3)cc1F` (stereo not drawn) [Compound 307], the pIC50 is more than 5.70.

With `CCN1CC(c2ccccc2)OC2(CCN(C(=O)c3ccc(OC(C)C)nc3)CC2)C1` (stereo not drawn) [Compound 308], the pIC50 is less than 5.30.

As for `Cc1cnc(C2CN(CC(F)(F)F)CC3(CCN(C(=O)c4ccc(OC(C)C)c(C)c4)CC3)O2)o1` (stereo not drawn) [Compound 309], the pIC50 is more than 5.70.
